From patent US6395726B1, “3,6-disubstituted penam sulfone derivatives” (priority 1999, dated 2002)
Like-named read-outs stand apart in the source and are kept apart here. Marks after values point to notes of the source that are not given here.

What was measured:
[1] = system: E. coli (TEM-1, Class A); assay: Microbiological assay, broth MIC in combination with piperacillin; type: cell-based; details: for MIC (μg/ml; 1:1) E. coli: piperacillin:inhibitor ratio 1:1, broth
Experimental: (§1) Representative compounds according to the present invention were tested in a microbiological assay in combination with the penicillin antibiotic piperacillin. The enhanced combined synergestic antibacterial activity is representative of the β-lactamase inhibitory properties of the compounds of the present invention. In these tests, minimum inhibitory […] (MIC's) are determined in broth using several two-fold dilutions with a 1:1 ratio of piperacillin to inhibitor (N. A. Kuck, N. V. Jacobus, P. J. Peterson, W. J. Weiss, and R. T. Testa, Antibiotic Agents and Chemotherapy, 33:1964-1969 (1989)).

[2] = system: S. marcescens (AmpC, Class C); assay: as above; type: cell-based; details: for MIC (μg/ml; 1:1) S. marcescens: piperacillin:inhibitor ratio 1:1
Experimental: as §1

[3] = molecular target: TEM-1 β-lactamase (Escherichia coli, UniProt P62593); assay: β-lactamase inhibition, spectrophotometric, nitrocefin substrate; type: biochemical
TEM-1 β-lactamase, sequence (P62593 24-286 limits assumed): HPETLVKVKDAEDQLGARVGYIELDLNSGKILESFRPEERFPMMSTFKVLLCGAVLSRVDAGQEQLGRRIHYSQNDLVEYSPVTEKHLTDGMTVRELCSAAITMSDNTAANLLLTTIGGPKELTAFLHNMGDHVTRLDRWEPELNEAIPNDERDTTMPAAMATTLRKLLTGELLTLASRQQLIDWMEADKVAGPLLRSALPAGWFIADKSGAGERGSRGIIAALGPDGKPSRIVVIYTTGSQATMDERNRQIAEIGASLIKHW

[4] = molecular target: AmpC β-lactamase (UniProt P18539); type: biochemical; details: read-out: IC50 (nM) AmpC
[5] = 10 minute preincubation of enzyme with inhibitor at 25° C., nitrocefin substrate, read-out: IC50 (nM) TEM-1
[6] = 10 minute preincubation of enzyme with inhibitor at 25° C., nitrocefin substrate

Structure (SMILES)	IC50 [3]	MIC (μg/ml; 1:1) E. coli ([1]; strain GC6265, TEM-1 (Class A))	MIC (μg/ml; 1:1) S. marcescens ([2]; strain GC4132, AmpC (Class C))	IC50 [3, 5]	IC50 [4, 6]	IC50 [4]	also measured
C[C@]1(Cn2ccnn2)C(C(=O)[O-])N2C(=O)[C@@H](CO)C2S1(=O)=O.[Na+] (some centres unmarked) [Example 1]	6 nM						MIC (μg/ml; 1:1) E. coli ([1]; strain GC2847, TEM-1 (Class A)): 2^c μg/ml; MIC (μg/ml; 1:1) S. marcescens ([2]; strain GC2894, AmpC (Class C)): 16^e μg/ml
C[C@]1(/C=C\C#N)[C@H](C(=O)O)N2C(=O)[C@@H](CO)[C@H]2S1(=O)=O [Example 2 (cis), (Z)-(2S,3S,5R,6R)-6-Hydroxymethyl-3-methyl-3-(3-nitrilo-propenyl)-4,4,7-trioxo-4-lambda(6)-thia-1-azabicyclo[3.2.0]heptane-2-carboxylic acid]		4 µg/mL	8 µg/mL	19 nM	270 nM		
C[C@]1(/C=C/C#N)[C@H](C(=O)O)N2C(=O)[C@@H](CO)[C@H]2S1(=O)=O [Example 2 (trans), (E)-(2S,3S,5R,6R)-6-Hydroxymethyl-3-methyl-3-(3-nitrilo-propenyl)-4,4,7-trioxo-4-lambda(6)-thia-1-aza-bicyclo[3.2.0]heptane-2-carboxylic acid]		16 µg/mL	4 µg/mL	74 nM	280 nM		
CON=C[C@@]1(C)[C@H](C(=O)O)N2C(=O)[C@@H](CO)[C@H]2S1(=O)=O [Example 3, (2S,3R,5R,6R)-6-Hydroxymethyl-3-(methoxyimino-methyl)-3-methyl-4,4,7-trioxo-4-lambda(6)-thia-1-aza-bicyclo[3.2.0]heptane-2-carboxylic acid]	64 nM	8 µg/mL	16 µg/mL			280 nM	
CCN1CCN(C(=O)N[C@@H](C(=O)N[C@@H]2C(=O)N3[C@@H]2SC(C)(C)[C@@H]3C(=O)O)c2ccccc2)C(=O)C1=O [Piperacillin, reference compound]							MIC ([1]; Escherichia coli, read-out: MIC (μg/ml) E. coli): > 64 µg/mL; MIC ([2]; Serratia marcescens, strain GC4132, AmpC (Class C), piperacillin row, no inhibitor named, read-out: MIC (μg/ml) S. marcescens): 32 µg/mL
C[C@]1(Cn2ccnn2)[C@H](C(=O)O)N2C(=O)C[C@H]2S1(=O)=O [Tazobactam, reference compound]		2 µg/mL	32 µg/mL			47700 nM	
